Values after ≈ are worked out from the molar mass of the structure shown. Read-outs that look alike come from different tables or passages of the source.
Assays:
M. marinum = test: Minimal inhibitory concentration (MIC), Middlebrook 7H9 broth, 3 days at 30 °C; type: cell-based, Mycobacterium marinum; conditions: unit assumed
In short: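 MICs came from two-fold broth dilutions from 5 mg/mL DMSO stocks, with 100-fold-diluted overnight cultures incubated overnight/24 h; growth was read at OD600 and the MIC taken as the lowest concentration without growth. For M. marinum, Middlebrook 7H9 broth was used with 3 days at 30 °C.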

E. coli JW5503 = type: cell-based, Escherichia coli; conditions: unit assumed
In short: (§1)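 Read-out was OD600 after 24 h incubation, with MIC defined as the lowest compound concentration showing no visible growth. Plates held twofold broth dilutions from 50 µg/mL, seeded with 100-fold diluted overnight cultures. For M. marinum, 7H9 broth and 3 days at 30 °C applied.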

S. suis = test: Minimal inhibitory concentration (MIC), double-dilution in broth, OD600; type: cell-based, Streptococcus suis; conditions: unit assumed
In short: as §1

E. faecium Van A = test: as above; type: cell-based, Enterococcus faecium; conditions: unit assumed
In short: as §1

P. multocida = test: as above; type: cell-based, Pasteurella multocida; conditions: unit assumed
In short: as §1

NRK-52E = test: Cell toxicity, Alamar blue assay, 24 hours exposure; type: cell-based; conditions: for IC50: Rattus norvegicus, read-out: IC50 NRK-52E (50 mg/mL stock)
In short: (§2)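 Alamar blue (resazurin→resorufin) viability in NRK-52E and HEK293 cells after 24 h exposure to HKI compounds at 0.39–500 µg/mL in serum-free medium. Compounds were removed, dye added for 45 min, fluorescence read. Mostly single measurements.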

HEK293 = test: as above; type: cell-based; conditions: for IC50: Homo sapiens
In short: as §2

S. aureus Newman = test: Minimal inhibitory concentration (MIC), double-dilution in broth, OD600; type: cell-based, Staphylococcus aureus Newman; conditions: unit assumed
In short: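 Twofold broth dilution series of compound from a DMSO stock, against S. aureus Newman from a 1:100-diluted overnight culture. Plates were incubated for 24 hours, then read at OD600. The MIC is the lowest concentration showing no growth.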

[1] = HEK293, read-out: IC50 HEK293 (50 mg/mL stock)
[2] = HEK293, read-out: IC50 HEK293 (5 mg/mL stock)

Structure (SMILES)	MIC M. marinum (M. marinum)	MIC E. coli JW5503 (E. coli JW5503)	MIC S. suis (S. suis)	MIC E. faecium Van A (E. faecium Van A)	MIC P. multocida (P. multocida)	IC50 (NRK-52E)	IC50 (HEK293; [1])	MIC S. aureus Newman (S. aureus Newman)	IC50 NRK-52E (50 mg/mL stock) (NRK-52E)	IC50 HEK293 (50 mg/mL stock) (HEK293)	IC50 HEK293 (5 mg/mL stock) (HEK293)	IC50 (HEK293; [2])
O=[N+]([O-])c1ccc(COc2ccc(-c3n[nH]c(C(F)(F)F)c3-c3ccc(Br)cc3)c(O)c2)cc1 [May-11, 2-[4-(4-bromophenyl)-5-(trifluoromethyl)-1∼{H}-pyrazol-3-yl]-5-(4-nitrobenzyl)oxyphenol]	12.5 µg/mL (≈ 23.4 µM)	> 50 µg/mL	3.13 µg/mL (≈ 5.86 µM)	1.56 µg/mL (≈ 2.92 µM)	> 50 µg/mL	~3.91 µg/mL (≈ 7.32 µM)	6.2 µg/mL (≈ 11.6 µM)	1.56 µg/mL (≈ 2.92 µM)	–	–	–	–
Oc1cc(OCc2ccccc2)ccc1-c1[nH]nc(C(F)(F)F)c1-c1ccccc1 [May-24, 5-benzoxy-2-[4-phenyl-5-(trifluoromethyl)-1∼{H}-pyrazol-3-yl]phenol]	25 µg/mL (≈ 60.9 µM)	25 µg/mL (≈ 60.9 µM)	3.13 µg/mL (≈ 7.63 µM)	1.56 µg/mL (≈ 3.8 µM)	> 50 µg/mL	~3.86 µg/mL (≈ 9.41 µM)	4.8 µg/mL (≈ 11.7 µM)	1.56 µg/mL (≈ 3.8 µM)	–	–	–	–
Oc1cc(OCc2ccc(Br)cc2)ccc1-c1n[nH]c(C(F)(F)F)c1-c1ccc(Cl)cc1 [May-18, 5-(4-bromobenzyl)oxy-2-[4-(4-chlorophenyl)-5-(trifluoromethyl)-1∼{H}-pyrazol-3-yl]phenol]	6.25 µg/mL (≈ 11.9 µM)	> 50 µg/mL	3.13 µg/mL (≈ 5.98 µM)	3.13 µg/mL (≈ 5.98 µM)	> 50 µg/mL	–	–	0.78 µg/mL (≈ 1.49 µM)	4.568	4.7	–	–
Oc1cc(OCc2ccc(Br)cc2)ccc1-c1n[nH]c(C(F)(F)F)c1-c1ccc(Cl)cc1 [Sep-13, 5-(4-bromobenzyl)oxy-2-[4-(4-chlorophenyl)-5-(trifluoromethyl)-1∼{H}-pyrazol-3-yl]phenol]	25 µg/mL (≈ 47.7 µM)	> 50 µg/mL	6.25 µg/mL (≈ 11.9 µM)	12.5 µg/mL (≈ 23.9 µM)	> 50 µg/mL	–	–	1.56 µg/mL (≈ 2.98 µM)	10.89	–	16.51	–
Oc1ccc(-c2n[nH]c(C(F)(F)F)c2-c2ccc(Br)cc2)c(O)c1 [AND-1, 4-[4-(4-bromophenyl)-5-(trifluoromethyl)-1∼{H}-pyrazol-3-yl]resorcinol]	> 50 µg/mL	1.56 µg/mL (≈ 3.91 µM)	12.5 µg/mL (≈ 31.3 µM)	12.5 µg/mL (≈ 31.3 µM)	25 µg/mL (≈ 62.6 µM)	–	–	3.13 µg/mL (≈ 7.84 µM)	∼3.86	14.7	6.94	–
Oc1cc(OCc2ccccc2)ccc1-c1n[nH]c(C(F)(F)F)c1-c1ccc(Br)cc1 [May-15, 5-benzoxy-2-[4-(4-bromophenyl)-5-(trifluoromethyl)-1∼{H}-pyrazol-3-yl]phenol]	12.5 µg/mL (≈ 25.5 µM)	> 50 µg/mL	3.13 µg/mL (≈ 6.4 µM)	3.13 µg/mL (≈ 6.4 µM)	> 50 µg/mL	5.13 µg/mL (≈ 10.5 µM)	6.9 µg/mL (≈ 14.1 µM)	1.56 µg/mL (≈ 3.19 µM)	–	–	–	–
COc1ccc(-c2c(-c3ccc(OCC(=O)NN)cc3O)n[nH]c2C(F)(F)F)cc1 [May-17, 2-[3-hydroxy-4-[4-(4-methoxyphenyl)-5-(trifluoromethyl)-1∼{H}-pyrazol-3-yl]phenoxy]acetohy drazide]	> 50 µg/mL	6.25 µg/mL (≈ 14.8 µM)	25 µg/mL (≈ 59.2 µM)	25 µg/mL (≈ 59.2 µM)	> 50 µg/mL	22 µg/mL (≈ 52.2 µM)	–	25 µg/mL (≈ 59.2 µM)	–	–	–	15 µg/mL (≈ 35.5 µM)
COc1ccc(-c2[nH]nc(C)c2-c2ccc(Br)cc2)c(O)c1 [May-4, 2-[4-(4-bromophenyl)-5-methyl-1∼{H}-pyrazol-3-yl]-5-methoxy-phenol]	25 µg/mL (≈ 69.6 µM)	3.13 µg/mL (≈ 8.71 µM)	6.25 µg/mL (≈ 17.4 µM)	12.5 µg/mL (≈ 34.8 µM)	12.5 µg/mL (≈ 34.8 µM)	~83.7 µg/mL (≈ 233 µM)	–	6.25 µg/mL (≈ 17.4 µM)	–	–	–	8.96 µg/mL (≈ 24.9 µM)
Cc1noc(-c2ccc(O)cc2O)c1-c1ccc(Br)cc1 [AND-3, 4-[4-(4-bromophenyl)-3-methyl-isoxazol-5-yl]resorcinol]	> 50 µg/mL	6.25 µg/mL (≈ 18.1 µM)	50 µg/mL (≈ 144 µM)	0.78 µg/mL (≈ 2.25 µM)	50 µg/mL (≈ 144 µM)	~354 µg/mL (≈ 1020 µM)	62.9 µg/mL (≈ 182 µM)	25 µg/mL (≈ 72.2 µM)	–	–	–	12.2 µg/mL (≈ 35.2 µM)
CCOc1ccc(-c2n[nH]c(C(F)(F)F)c2-c2ccccc2OC)c(O)c1 [May-20, 5-ethoxy-2-[4-(2-methoxyphenyl)-5-(trifluoromethyl)-1∼{H}-pyrazol-3-yl]phenol]	25 µg/mL (≈ 66.1 µM)	3.13 µg/mL (≈ 8.27 µM)	6.25 µg/mL (≈ 16.5 µM)	12.5 µg/mL (≈ 33 µM)	50 µg/mL (≈ 132 µM)	~17.6 µg/mL (≈ 46.5 µM)	–	6.25 µg/mL (≈ 16.5 µM)	–	–	–	2.1 µg/mL (≈ 5.55 µM)
CCOc1cc(O)c(-c2n[nH]c(C(F)(F)F)c2-c2ccccc2)cc1CC [Sep-2, 5-ethoxy-4-ethyl-2-[4-phenyl-5-(trifluoromethyl)-1∼{H}-pyrazol-3-yl]phenol]	> 50 µg/mL	25 µg/mL (≈ 66.4 µM)	25 µg/mL (≈ 66.4 µM)	25 µg/mL (≈ 66.4 µM)	> 50 µg/mL	~17.4 µg/mL (≈ 46.2 µM)	–	6.25 µg/mL (≈ 16.6 µM)	–	–	–	3.97 µg/mL (≈ 10.5 µM)

From patent publication EP3827825A1, “USE OF 3, 4-DIARYLPYRAZOLES AS ANTIBACTERIAL AGENTS” (Wageningen Universiteit, priority 2019, dated 2021)
